Reference: ChEMBL document CHEMBL1914286, “Design, structure-activity relationship, and highly efficient asymmetric synthesis of 3-phenyl-4-benzylaminopiperidine derivatives as novel neurokinin-1 receptor antagonists” (Bioorg Med Chem, 2011)

How the values were obtained:
Cavia porcellus [1] = assay: Antagonist activity at NK1 receptor in po dosed Hartley guinea pig assessed as inhibition of GR73632-induced hypermotility measured after 0.75 hrs; type: functional; details: for ED50: Cavia porcellus, Hartley, po, 0.75 h, read-out: ID50 (the source's name)
Liver microsomes = details: human, 1 µM
Description: (§1) Metabolic stability in human liver microsomes at 1 uM

Substance-P receptor = Substance-P receptor (Homo sapiens, UniProt P25103); assay: biochemical
Description: Displacement of [125I]BH-SP from NK1 receptor in human IM9 cells after 30 mins by scintillation counting

in vitro = details: human, liver microsomes, Stability
Description: as §1

Cavia porcellus [2] = organism: Cavia porcellus; assay: animal or person; details: Hartley, po, 0.75 h, read-out: INH
physchem = details: buffer, pH 7.4
Description: Lipophilicity, log D of the compound at pH 7.4

Sequence of Substance-P receptor (P25103 whole entry): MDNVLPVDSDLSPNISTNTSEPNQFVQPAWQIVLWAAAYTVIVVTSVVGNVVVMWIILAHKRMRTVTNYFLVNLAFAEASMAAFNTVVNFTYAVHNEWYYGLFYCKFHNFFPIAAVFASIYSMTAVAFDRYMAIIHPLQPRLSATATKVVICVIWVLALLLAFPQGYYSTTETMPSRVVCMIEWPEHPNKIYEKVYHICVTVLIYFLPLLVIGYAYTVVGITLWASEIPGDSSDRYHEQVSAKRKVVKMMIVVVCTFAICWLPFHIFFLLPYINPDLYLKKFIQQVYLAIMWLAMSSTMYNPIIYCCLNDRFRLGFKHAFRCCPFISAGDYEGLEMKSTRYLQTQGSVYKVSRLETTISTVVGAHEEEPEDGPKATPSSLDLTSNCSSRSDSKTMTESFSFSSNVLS

| Stability (Liver microsomes) [µL/min/mg] | IC50 (Substance-P receptor) [nM] | microsomal CLint at 1 µM (in vitro) [µL/min/mg] | logD (physchem) | Compound | ID50 (Cavia porcellus [1]) [mg/kg] | inhibition in vivo at 1 mg/kg (Cavia porcellus [2]) [%] | ED50 (Cavia porcellus [1]) [mg/kg] |
| --- | --- | --- | --- | --- | --- | --- | --- |
| 8 |  |  |  | COc1ccc(-n2nnnc2C(F)(F)F)cc1CN[C@H]1CCN(C(=O)CNC(C)=O)C[C@H]1c1ccccc1 | 0.066 |  |  |
|  | > 100 |  |  | COc1ccc(-n2nnnc2C(F)(F)F)cc1CN[C@@H]1CCN(C(=O)CNC(C)=O)C[C@@H]1c1ccccc1 |  |  |  |
|  | 1.9 |  |  | CCN1CC[C@H](NCc2cc(-n3nnnc3C(F)(F)F)ccc2OC)[C@H](c2ccccc2)C1 (racemic) |  |  |  |
|  | 0.075 | 144 |  | COc1ccc(-n2nnnc2C(F)(F)F)cc1CN[C@H]1CCN(S(C)(=O)=O)C[C@H]1c1ccccc1 (racemic) |  | 18 |  |
|  | 0.054 | 199 |  | COC(=O)N1CC[C@H](NCc2cc(-n3nnnc3C(F)(F)F)ccc2OC)[C@H](c2ccccc2)C1 (racemic) |  | 65 |  |
|  | 0.049 | 111 | 2.69 | COc1ccc(-n2nnnc2C(F)(F)F)cc1CN[C@H]1CCN(C(C)=O)C[C@H]1c1ccccc1.Cl (racemic) |  | 82 | 0.2 |
|  | 0.039 | 159 | 2.79 | CCNC(=O)N1CC[C@H](NCc2cc(-n3nnnc3C(F)(F)F)ccc2OC)[C@H](c2ccccc2)C1.Cl (racemic) |  | 70 | 0.37 |
|  | 0.081 | 167 | 3.09 | COc1ccc(-n2nnnc2C(F)(F)F)cc1CN[C@H]1CCN(C(=O)NC(C)C)C[C@H]1c1ccccc1 (racemic) |  | 66 |  |
|  | 0.057 | 155 | 3.03 | COc1ccc(-n2nnnc2C(F)(F)F)cc1CN[C@H]1CCN(C(=O)NCC(F)(F)F)C[C@H]1c1ccccc1 (racemic) |  | 65 |  |
|  | 0.13 | 213 | 3.18 | COc1ccc(-n2nnnc2C(F)(F)F)cc1CN[C@H]1CCN(C(=O)N(C)C)C[C@H]1c1ccccc1 (racemic) |  | 90 |  |
|  | 0.057 | 27 | 2.31 | COc1ccc(-n2nnnc2C(F)(F)F)cc1CN[C@H]1CCN(C(=O)C2CN(C(C)=O)C2)C[C@H]1c1ccccc1 (racemic) |  | 32 |  |
| 32 | 0.073 |  | 2.28 | COc1ccc(-n2nnnc2C(F)(F)F)cc1CN[C@H]1CCN(C(=O)CNC(C)=O)C[C@H]1c1ccccc1 (racemic) | 0.26 | 99 |  |
|  | 0.054 | 95 | 2.35 | COc1ccc(-n2nnnc2C(F)(F)F)cc1CN[C@H]1CCN(C(=O)CCNC(C)=O)C[C@H]1c1ccccc1.Cl (racemic) |  | 79 | 0.34 |
|  | 0.025 | 146 | 2.43 | COc1ccc(-n2nnnc2C(F)(F)F)cc1CN[C@H]1CCN(C(=O)CCCNC(C)=O)C[C@H]1c1ccccc1 (racemic) |  |  |  |
|  | 0.084 | 73 | 2.31 | COc1ccc(-n2nnnc2C(F)(F)F)cc1CN[C@H]1CCN(C(=O)CN(C)C(C)=O)C[C@H]1c1ccccc1 (racemic) |  | 74 |  |
|  | 0.2 | 34 |  | COc1ccc(-n2nnnc2C(F)(F)F)cc1CN[C@@H]1CCN(C(=O)CNC(C)=O)C[C@H]1c1ccccc1 (racemic) |  |  |  |

The remaining lines, values behind:

| Compound | Stability (Liver microsomes) [µL/min/mg] | IC50 (Substance-P receptor) [nM] | microsomal CLint at 1 µM (in vitro) [µL/min/mg] | logD (physchem) | ID50 (Cavia porcellus [1]) [mg/kg] | inhibition in vivo at 1 mg/kg (Cavia porcellus [2]) [%] | ED50 (Cavia porcellus [1]) [mg/kg] |
| --- | --- | --- | --- | --- | --- | --- | --- |
| CCN1CC[C@H](NCc2cc(OC(F)(F)F)ccc2OC)[C@H](c2ccccc2)C1 (racemic) |  | 4.8 |  |  |  |  |  |
| COc1ccc(OC(F)(F)F)cc1CN[C@H]1CCN(S(C)(=O)=O)C[C@H]1c1ccccc1 (racemic) |  | 1.2 |  |  |  |  |  |
| COC(=O)N1CC[C@H](NCc2cc(OC(F)(F)F)ccc2OC)[C@H](c2ccccc2)C1 (racemic) |  | 0.31 |  |  |  |  |  |
| COc1ccc(OC(F)(F)F)cc1CN[C@H]1CCN(C(C)=O)C[C@H]1c1ccccc1 (racemic) |  | 0.16 |  |  |  |  |  |
| CCNC(=O)N1CC[C@H](NCc2cc(OC(F)(F)F)ccc2OC)[C@H](c2ccccc2)C1 (racemic) |  | 0.17 |  |  |  |  |  |
| CCNC(=O)N1CC[C@@H](NCc2cc(OC(F)(F)F)ccc2OC)[C@H](c2ccccc2)C1 (racemic) |  | 3.7 |  |  |  |  |  |
| CCNC(=O)N1CC[C@H](NCc2cc(-n3nnnc3C(F)(F)F)ccc2OCC)[C@H](c2ccccc2)C1 (racemic) |  | 0.086 | 218 |  |  | 35 |  |
| CCNC(=O)N1CC[C@H](NCc2cc(-n3nnnc3C(F)(F)F)ccc2OC2CC2)[C@H](c2ccccc2)C1 (racemic) |  | 0.044 | 217 |  |  | 94 |  |
| CCNC(=O)N1CC[C@H](NCc2cc(-n3nnnc3C(F)(F)F)cc3c2OCC3)[C@H](c2ccccc2)C1 (racemic) |  | 0.093 | 160 |  |  | 57 |  |
| COc1ccc(-n2nnnc2C(F)(F)F)cc1CN[C@H]1CCN(C(=O)C2CCN(C(C)=O)CC2)C[C@H]1c1ccccc1.Cl (racemic) |  | 0.1 | 76 | 2.51 |  | 85 | 0.33 |
| COc1ccc(-n2nnnc2C(F)(F)F)cc1CN[C@H]1CCNC[C@H]1c1ccccc1 (racemic) |  | 1.4 |  |  |  |  |  |
| COc1ccc(OC(F)(F)F)cc1CN[C@H]1CCNC[C@H]1c1ccccc1 (racemic) |  | 8.4 |  |  |  |  |  |
